Measurements taken from patent publication US11963939B2, “Use of N-acetylcysteine to treat central nervous system disorders” (Neuronasal, Inc., priority 2017, dated 2024).

How the values were obtained:
[1] = system: primary cortical neurons; assay: cells; assay type: cell-based, mouse; conditions: Mus musculus, Primary cortical neuron; 100 μM hemin, primary cortical neurons; read-out: EC50 for reduction of hemin-induced toxicity/ferroptosis
Procedure: Primary cortical neuronal cultures: Primary cortical neurons were collected from embryonic (E15) CD1 mice. The cortices of the mice were dissected, homogenized, and plated in minimum essential medium containing 10% fetal bovine serum (FBS), 5% horse serum, and 1% penicillin/streptomycin in 96-well plates, 6-well plates, or 10-cm dishes. The neurons were maintained at 37° C. with 5% CO2. All experiments were conducted 24 hours after plating.
In vitro ICH model: Ferroptosis is a type of programmed cell death that is dependent on iron, and is characterized by the accumulation of lipid peroxides. Ferroptosis is genetically and biochemically distinct from other forms of regulated cell death such as apoptosis. Ferroptosis is initiated by the failure of the glutathione-dependent antioxidant defenses, resulting in unchecked lipid peroxidation and eventual cell death.
Cell death was induced in primary cortical neurons by treating the neurons with hemin, a blood breakdown product. For the neuroprotection studies, cells were treated with hemin (100 μM) in the presence of NAC (0.1 mM to 1mM), 6-hydroxy-2,5,7,8-tetramethylchroman-2-carboxylic acid (trolox; 0.1 μM to 100 μM), β-carotene (0.1 μM to 100 μM) α-lipoic acid (0.01 mM to 2 mM), glutathione ethyl ester (1 mM to 10 mM), oxothiazolidine-4-carboxylate (1 mM to 10 mM), cystamine (0.1 μM to 10 μM), or nordihydroguaiaretic acid (0.1 μM to 10 μM). Cell viability was analyzed 24 h after treatment. The cells were rinsed with warm phosphate-buffered saline (PBS) and assessed using an MTT assay. The fidelity of the MTT assays in measuring viability was verified by calcein-AM/ethidium homodimer-1 staining (Live/Dead assay).
The ability of NAC to protect cells was investigated in a hemin model of hemorrhagic stroke. The in vitro model of ICH involved the administration of hemin, a breakdown product of hemoglobin from lysed blood, to trigger cell death. Treatment of primary cortical neurons with 100 μM hemin induced widespread cell death through a ferroptotic mechanism, which was quantified with MTT and qualitatively observed using live/dead staining. Living cells were labeled with calcein-AM, and dead cells were labeled with ethidium homodimer. […] Scale bars: 100 μm.
A systematic pharmacological screening of oxidized lipid species inhibitors in the context of hemin-induced cell death was performed in primary cortical neurons. Primary cortical neurons were co-treated with hemin and a non-specific or enzymatic lipid peroxidation inhibitor. The MTT assays were performed 18 h following the co-treatment.

[2] = system: total glutathione; assay: Total glutathione levels in neurons by HPLC; assay type: cell-based, mouse; conditions: 0.1 or 1.0 mM NAC, presence or absence of hemin
Text: Cysteine is the rate-limiting precursor for the synthesis of glutathione with γ-glutamylcysteine synthetase and glutathione synthetase. NAC undergoes hydrolysis to liberate cysteine, which is transported by the alanine-serine cysteine (ASC) system. To determine whether NAC-induced protection from heme requires glutathione, glutathione synthesis was inhibited using buthionine sulfoximine (BSO), a selective inhibitor of γ-glutamylcysteine synthetase, the rate limiting step in glutathione synthesis. The necessity of a NAC-induced increase in glutathione, and whether NAC-induced protection could be abrogated were evaluated. A reduction in glutathione levels was measured using HPLC. […] In the presence of hemin, the absolute levels of glutathione were reduced. […] Significance was determined by two-way ANOVA followed by Bonferroni's comparison test, from three independent experiments.

[3] = system: lipid protein adducts; assay: Hemin-induced lipid protein adduct formation (Bt-AA, streptavidin-HRP Western blot) in primary neurons; assay type: cell-based, mouse
Procedure: Electrophilic attack by ALOX5 products could alter cellular protein-mediated signaling to trigger cell death. Arachidonic acid (AA) tagged with biotin (Bt-AA) was used to monitor the formation of covalent protein adducts. To test whether hemin was sufficient to catalyze the formation of protein-reactive lipid species, primary neurons were treated with hemin at concentrations of 5 μM-50 μM for 4 h. Lipid protein adducts were detected by Western blots probed with Streptavidin-HRP. Bt-AA incorporation into protein increased with increasing concentrations of hemin, and significant lipid protein adducts were detected at 50 μM hemin. […] The blot is representative from replicates of three experiments. The arrow indicates the decrease in lipid protein adduct formation.

[4] = system: ALOX AP; assay: ALOX AP mRNA levels in hemin-treated primary cortical neurons (RT-PCR); assay type: cell-based, mouse; conditions: NAC 1 mM
Procedure: Quantitative real-time PCR: Total RNA was prepared using a NucleoSpin® RNA II kit. Duplex real-time PCR reactions were performed with gene expression assays using 6-carboxyfluorescein-labeled probes for ALOX5 (Mm 01182747_m1) and ALOX5AP (Mm 01218551_m1). Expression levels were normalized to β-actin gene expression levels, which were determined with a VIC™-labeled probe. All experiments were performed using a real-time PCR system.
The abilities of hemin and NAC to induce increases in ALOX5 and ALOX AP mRNA levels were examined. […] Consistent with the protein data (FIG. 17), hemin induced increases in ALOX AP and ALOX5 mRNA levels in a time-dependent manner.

[5] = system: collagenase-induced mouse model of ICH; assay: In vivo collagenase-induced mouse model of ICH (Fluoro-Jade staining, corner task, adhesive tape removal task, hematoma size)
Procedure: In vivo collagenase-induced mouse model of ICH: Male C57BL/6 mice (8 to 10 weeks of age) or mice (10 to 12 weeks of age) were anesthetized with isoflurane (2% to 5%) and placed on a stereotaxic frame. During the procedure, the animal's body temperature was maintained at 37° C. with a homeothermic blanket. 1 mL of collagenase (0.075 IU) was infused into the right striatum at a flow rate of 0.120 μL/min using a Nanomite® syringe pump and a syringe. Relative to the bregma point, the stereotaxic coordinates of the injection were: lateral, −0.20; anteroposterior, 0.62; and dorsoventral, −0.40. In control animals, 1 mL of saline was infused. The treatment group received NAC (75 mg/kg or 300 mg/kg in normal saline, I.P.) once a day for 7 days starting at 2 h after collagenase infusion. For combinatorial studies, NAC (40 mg/kg, I.P.) and PGE 2 (10 μM, ICV) were administered to the mice 2 h after the collagenase injection, and then NAC (40 mg/kg) was administered once daily for 7 days. The control groups received the vehicle (normal saline) alone. The animals were randomized to sham or ICH groups. The identities of the mice that received vehicle or NAC were masked to surgeons who performed the experiments. […] Proper postoperative care was provided until the animals recovered completely.
Behavioral analysis: The corner task assessed integrated sensorimotor function in the stimulation of vibrissae (sensory neglect) and rearing (motor response). Mice were placed between two cardboard pieces that formed a corner with a 30° angle. While maintaining the 30° angle, the boards were gradually moved toward the mouse until the mouse approached the corner, reared upward, and turned 180° to face the open end. The direction (left or right) in which the mouse turned was recorded for each trial. Ten trials were performed for each mouse.
For the sensory neglect task (adhesive tape removal task), adhesive tape was placed on the planter region of the forward paw (right and left) of each mouse. The time from which the tape was applied to when the mouse successfully removed the tape was recorded for each paw. A maximum of 300 s for each paw was allowed.
Fluoro-Jade® B staining: Neurodegeneration of cells was assessed in mice with collagenase-induced ICH using Fluoro-Jade® B staining. 40 μM brain sections were mounted on gelatin-coated slides and dried at room temperature overnight. The sections were immersed in a graded series of alcohol solutions before being immersed in a 0.06% potassium permanganate (KMnO4) solution for 15 min. Sections were washed with water before being immersed in a 0.001% Fluoro-Jade® staining solution with gentle shaking in the dark for 30 min. The sections were then washed with water and dried overnight at room temperature in the dark before being dehydrated and coverslipped with DPX. Fluoro-Jade® B staining was examined within perihematoma or hematoma regions using a fluorescence microscope. Quantification of Fluoro-Jade® B staining was performed using three brain sections (anterior to posterior of hematoma) using Metamorph analysis.
The vehicle or NAC was then administered daily up to 7 days following the ictus. Neuronal loss was determined using a non-specific marker of neurodegeneration, Fluoro-Jade® staining. […] Mouse behavior was assessed using a corner task (spatial neglect) and an adhesive tape removal task (sensory neglect). Mouse behavior was assessed on day 1, 3, and 7 after the induction of ICH.

[6] = Total iron levels in brain of ICH mice by X-ray fluorescence; assay type: in vivo, mouse; conditions: 7 days
Text: In vivo metal distribution imaging analysis by X-ray fluorescence: Seven days following collagenase-induced ICH, mice were euthanized and perfused with trace metal-free PBS. The brains were removed from the mice and flash frozen. Tissue samples were cut into 20 μm-thick sections and deposited onto 4 μm-thick Ultralene® films. The iron and zinc contents of the tissue samples were imaged using X-ray fluorescence microscopy (XFM). X-ray fluorescence spectra were collected using an X-ray excitation energy of 11 keV and a beam size of 9 μm (vertical)×17 μm (horizontal) in 15-μm steps, with an integration time of 7 sec/pixel. The intensity for each metal was quantified by integrating the area under the curve for the respective peak in the XRF spectrum (iron Kα=6405 eV and zinc Kα=8637 eV).
National Institute of Standards and Technology thin film standard reference materials 1832 and 1833 were used to calculate concentrations and to normalize for any differences between the multiple beam time runs required to collect the data. Molar concentrations were determined by dividing the […] values by the product of the volume of X-ray beam on the sample (area×thickness of the sample), the density of tissue (estimated to be 0.9 g/cm^3), and the molecular weight of the element.
The ability of NAC to affect total metal levels in the brain was evaluated. […]

[7] = NAC 40 mg/kg i.p. and/or PGE2 10 μM ICV, days 1, 3, 7

Question: With `CC(=O)N[C@@H](CS)C(=O)O` [NAC, N-acetylcysteine] as the compound, how does the EC50 [1] read?
Answer: Its EC50 is 500 µM.

Question: And the “Total glutathione levels in neurons” value [2]?
Answer: Its value is “dose-dependently increased the total glutathione levels”.

Question: What about the AA-protein adduct formation ([3]; non-protective doses: NAC 0.1 mM, vitamin E 1 μM, zileuton 1 μM) of the same compound?
Answer: The AA-protein adduct formation was “did not decrease AA-protein adduct formation”.

Question: What about the “Lipid protein adduct formation” value ([3]; protective doses: NAC 1 mM, vitamin E 10 μM, zileuton 10 μM) of the same compound?
Answer: Its value is “decreased lipid protein adduct formation”.

Question: And the “Hemin-induced ALOX AP expression” value [4]?
Answer: The value was “blocked the expression of ALOX AP”.

Question: And the “Hematoma size by light microscopy” value ([5]; 75 mg/kg or 300 mg/kg NAC vs control ICH group)?
Answer: Its value is “No significant difference”.

Question: What about the “Adhesive tape removal task (sensory neglect)” value ([5]; 300 mg/kg NAC, days 1, 3, 7) of the same compound?
Answer: Its value is “improvements in sensory neglect were observed”.

Question: What about the “Corner turn task deficits (spatial neglect)” value ([5]; 300 mg/kg NAC, days 1, 3, 7) of the same compound?
Answer: The value was “corrected by administration of 300 mg/kg NAC”.

Question: And the “Sensory neglect (adhesive tape removal task) behavioral deficits” value [5, 7]?
Answer: The value was “no effect”.

Question: What about the “Spatial neglect (corner task) behavioral deficits” value [5, 7] of the same compound?
Answer: The value was “no effect”.

Question: What about the “Neuronal degeneration in perihematomal regions (Fluoro-Jade staining)” value ([5]; NAC 40 mg/kg i.p. daily 7 days and/or dmPGE2 10 μM ICV 2 h post-injury) of the same compound?
Answer: The value was “no significant effect”.

Question: What about the “Neuronal degeneration in perihematomal regions (Fluoro-Jade staining)” value ([5]; NAC 300 mg/kg I.P. daily from 2 h post-ICH, day 7) of the same compound?
Answer: The value was “reduced neuronal degeneration in perihematomal regions”.

Question: What about the “Collagenase activity by hematoma size” value ([5]; NAC 300 mg/kg, 24 h after collagenase injection) of the same compound?
Answer: Its value is “did not inhibit or affect collagenase activity”.

Question: What about the “Iron levels and iron distribution in brain following ICH” value [6] of the same compound?
Answer: The value was “no effect on iron levels or iron distribution”.
